Measured values as given in patent US9493426B2, “Quinazolinone derivatives useful as FGFR kinase modulators” (priority 2013, dated 2016).

Experiments:
[1] = biological target: T1, FGFR1 (Homo sapiens, UniProt P11362); test: Enzyme binding assay (KINOMEscan) FGFR1; conditions: FGFR1_pKd, pKd = -log Kd (M)
T1 construct: purchased DiscoveRx Corporation
Protocol: (§1) Enzyme Binding Assays (KINOMEscan®)
(§2) Kinase enzyme binding affinities of compounds disclosed herein were determined using the KINOMEscan® technology performed by DiscoveRx Corporation, San Diego, Calif., USA (www.kinomescan.com).

[2] = biological target: T2, FGFR2 (Homo sapiens, UniProt P21802); test: Enzyme binding assay (KINOMEscan) FGFR2; conditions: pKd = -log Kd (M), read-out: FGFR2_pKd (converted)
T2 construct: purchased DiscoveRx Corporation
Protocol: as §1, §2

[3] = biological target: T3, FGFR3 (Homo sapiens, UniProt P22607); test: Enzyme binding assay (KINOMEscan) FGFR3; conditions: pKd = -log Kd (M), read-out: FGFR3_pKd (converted)
T3 construct: purchased DiscoveRx Corporation
Protocol: as §1, §2

[4] = biological target: T4, VEGFR2 (Homo sapiens, UniProt P35968); test: Enzyme binding assay (KINOMEscan) VEGFR2; conditions: pKd = -log Kd (M), read-out: VEGFR2_pKd (converted)
T4 construct: purchased DiscoveRx Corporation
Protocol: as §1, §2

[5] = biological target: T5, FGFR4 (Homo sapiens, UniProt P22455); test: Enzyme binding assay (KINOMEscan) FGFR4; conditions: pKd = -log Kd (M); for Kd: read-out: FGFR4_pKd (converted)
T5 construct: purchased DiscoveRx Corporation
Protocol: as §1, §2

T5 sequence (P22455 22-802): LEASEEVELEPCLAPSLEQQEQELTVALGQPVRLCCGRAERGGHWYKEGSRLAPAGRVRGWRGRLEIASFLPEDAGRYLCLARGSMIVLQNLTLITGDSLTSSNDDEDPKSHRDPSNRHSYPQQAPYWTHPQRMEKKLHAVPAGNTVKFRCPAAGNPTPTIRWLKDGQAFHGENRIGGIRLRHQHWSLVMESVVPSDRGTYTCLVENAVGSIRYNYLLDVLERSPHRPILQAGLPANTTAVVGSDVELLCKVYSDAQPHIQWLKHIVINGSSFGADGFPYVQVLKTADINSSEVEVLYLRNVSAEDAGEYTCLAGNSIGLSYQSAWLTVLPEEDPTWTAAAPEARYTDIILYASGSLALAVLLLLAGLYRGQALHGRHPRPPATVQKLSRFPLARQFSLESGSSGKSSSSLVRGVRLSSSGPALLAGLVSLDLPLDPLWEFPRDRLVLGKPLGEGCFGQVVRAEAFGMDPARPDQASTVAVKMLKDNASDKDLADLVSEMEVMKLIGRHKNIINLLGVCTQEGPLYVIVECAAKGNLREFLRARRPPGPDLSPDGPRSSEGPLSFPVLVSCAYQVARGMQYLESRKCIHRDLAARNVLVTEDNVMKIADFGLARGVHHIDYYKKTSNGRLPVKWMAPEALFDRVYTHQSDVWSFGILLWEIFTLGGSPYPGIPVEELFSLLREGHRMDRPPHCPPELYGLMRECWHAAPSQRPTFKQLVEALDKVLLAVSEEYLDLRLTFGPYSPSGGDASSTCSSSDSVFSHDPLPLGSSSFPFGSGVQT
T3 sequence (P22607 23-806): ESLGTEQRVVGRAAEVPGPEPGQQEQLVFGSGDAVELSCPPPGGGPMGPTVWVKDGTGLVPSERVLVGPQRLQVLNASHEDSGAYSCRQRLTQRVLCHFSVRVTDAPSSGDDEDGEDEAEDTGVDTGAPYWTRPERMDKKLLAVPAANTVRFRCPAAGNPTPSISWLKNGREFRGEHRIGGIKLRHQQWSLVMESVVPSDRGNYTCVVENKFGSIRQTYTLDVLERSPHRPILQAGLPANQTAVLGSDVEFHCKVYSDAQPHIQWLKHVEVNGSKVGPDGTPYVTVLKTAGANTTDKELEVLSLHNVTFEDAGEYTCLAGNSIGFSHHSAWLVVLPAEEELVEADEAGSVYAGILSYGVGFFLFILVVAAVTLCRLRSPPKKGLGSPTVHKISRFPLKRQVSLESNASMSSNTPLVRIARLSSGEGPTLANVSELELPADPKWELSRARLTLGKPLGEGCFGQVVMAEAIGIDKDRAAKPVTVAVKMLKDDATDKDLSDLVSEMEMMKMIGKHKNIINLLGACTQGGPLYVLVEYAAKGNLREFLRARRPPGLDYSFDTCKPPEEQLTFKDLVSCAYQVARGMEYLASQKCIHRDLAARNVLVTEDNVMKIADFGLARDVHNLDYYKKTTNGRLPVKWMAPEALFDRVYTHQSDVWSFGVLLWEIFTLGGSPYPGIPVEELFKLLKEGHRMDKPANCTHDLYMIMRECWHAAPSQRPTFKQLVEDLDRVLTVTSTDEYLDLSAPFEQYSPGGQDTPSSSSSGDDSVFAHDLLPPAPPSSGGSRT
T1 sequence (P11362 22-822): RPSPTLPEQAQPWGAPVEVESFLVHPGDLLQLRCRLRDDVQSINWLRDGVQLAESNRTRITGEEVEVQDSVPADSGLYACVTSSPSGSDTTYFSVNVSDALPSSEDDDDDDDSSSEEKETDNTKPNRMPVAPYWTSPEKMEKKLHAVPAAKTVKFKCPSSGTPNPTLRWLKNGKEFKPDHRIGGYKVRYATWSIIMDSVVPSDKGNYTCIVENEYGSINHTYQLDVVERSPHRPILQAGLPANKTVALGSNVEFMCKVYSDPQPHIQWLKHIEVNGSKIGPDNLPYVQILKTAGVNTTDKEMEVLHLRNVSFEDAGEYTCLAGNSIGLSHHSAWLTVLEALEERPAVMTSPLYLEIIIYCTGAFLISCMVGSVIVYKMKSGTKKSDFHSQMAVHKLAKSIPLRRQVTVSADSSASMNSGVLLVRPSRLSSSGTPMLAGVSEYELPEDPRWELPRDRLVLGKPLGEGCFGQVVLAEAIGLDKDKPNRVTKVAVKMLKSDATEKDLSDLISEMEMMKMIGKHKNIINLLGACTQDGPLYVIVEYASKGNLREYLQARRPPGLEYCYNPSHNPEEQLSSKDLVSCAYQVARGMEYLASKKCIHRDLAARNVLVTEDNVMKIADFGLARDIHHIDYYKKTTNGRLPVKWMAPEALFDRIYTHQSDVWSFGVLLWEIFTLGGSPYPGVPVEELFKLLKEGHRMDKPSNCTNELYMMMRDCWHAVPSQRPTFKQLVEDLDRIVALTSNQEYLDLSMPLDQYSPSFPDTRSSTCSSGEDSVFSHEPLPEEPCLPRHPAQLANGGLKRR
T4 sequence (P35968 20-1356): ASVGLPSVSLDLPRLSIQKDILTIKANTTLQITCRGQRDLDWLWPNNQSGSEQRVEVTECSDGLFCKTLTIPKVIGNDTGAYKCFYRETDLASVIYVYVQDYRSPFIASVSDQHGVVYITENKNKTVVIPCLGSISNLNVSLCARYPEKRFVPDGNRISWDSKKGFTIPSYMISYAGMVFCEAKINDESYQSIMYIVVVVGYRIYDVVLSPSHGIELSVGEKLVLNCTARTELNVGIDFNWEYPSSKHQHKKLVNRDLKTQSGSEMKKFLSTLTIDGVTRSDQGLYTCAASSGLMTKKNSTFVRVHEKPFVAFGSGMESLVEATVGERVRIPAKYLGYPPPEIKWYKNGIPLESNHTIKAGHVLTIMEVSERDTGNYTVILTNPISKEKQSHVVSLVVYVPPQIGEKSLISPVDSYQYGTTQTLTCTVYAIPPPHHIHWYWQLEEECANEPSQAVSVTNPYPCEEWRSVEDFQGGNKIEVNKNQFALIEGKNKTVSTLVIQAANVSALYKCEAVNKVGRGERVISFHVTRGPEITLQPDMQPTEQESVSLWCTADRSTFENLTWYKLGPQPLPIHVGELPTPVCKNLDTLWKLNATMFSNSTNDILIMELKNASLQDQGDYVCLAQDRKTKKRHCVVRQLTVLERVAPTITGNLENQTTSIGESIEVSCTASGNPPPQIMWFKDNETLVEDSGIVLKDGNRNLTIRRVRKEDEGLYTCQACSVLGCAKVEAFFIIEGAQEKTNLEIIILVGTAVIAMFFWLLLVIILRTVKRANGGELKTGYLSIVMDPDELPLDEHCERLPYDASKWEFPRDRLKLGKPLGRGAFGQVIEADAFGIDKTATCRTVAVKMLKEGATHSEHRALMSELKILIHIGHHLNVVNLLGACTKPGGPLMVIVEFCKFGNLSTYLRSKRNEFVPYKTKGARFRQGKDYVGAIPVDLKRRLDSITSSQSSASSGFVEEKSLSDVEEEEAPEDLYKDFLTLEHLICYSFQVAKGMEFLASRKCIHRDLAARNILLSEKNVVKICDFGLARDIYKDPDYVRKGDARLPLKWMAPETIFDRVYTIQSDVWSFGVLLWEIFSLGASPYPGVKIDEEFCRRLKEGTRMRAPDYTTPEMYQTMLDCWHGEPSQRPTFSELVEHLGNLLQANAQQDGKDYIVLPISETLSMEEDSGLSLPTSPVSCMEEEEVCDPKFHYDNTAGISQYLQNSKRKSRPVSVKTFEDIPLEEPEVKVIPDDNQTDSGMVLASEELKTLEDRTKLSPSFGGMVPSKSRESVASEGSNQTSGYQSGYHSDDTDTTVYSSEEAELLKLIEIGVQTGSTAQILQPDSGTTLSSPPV
T2 sequence (P21802 22-821): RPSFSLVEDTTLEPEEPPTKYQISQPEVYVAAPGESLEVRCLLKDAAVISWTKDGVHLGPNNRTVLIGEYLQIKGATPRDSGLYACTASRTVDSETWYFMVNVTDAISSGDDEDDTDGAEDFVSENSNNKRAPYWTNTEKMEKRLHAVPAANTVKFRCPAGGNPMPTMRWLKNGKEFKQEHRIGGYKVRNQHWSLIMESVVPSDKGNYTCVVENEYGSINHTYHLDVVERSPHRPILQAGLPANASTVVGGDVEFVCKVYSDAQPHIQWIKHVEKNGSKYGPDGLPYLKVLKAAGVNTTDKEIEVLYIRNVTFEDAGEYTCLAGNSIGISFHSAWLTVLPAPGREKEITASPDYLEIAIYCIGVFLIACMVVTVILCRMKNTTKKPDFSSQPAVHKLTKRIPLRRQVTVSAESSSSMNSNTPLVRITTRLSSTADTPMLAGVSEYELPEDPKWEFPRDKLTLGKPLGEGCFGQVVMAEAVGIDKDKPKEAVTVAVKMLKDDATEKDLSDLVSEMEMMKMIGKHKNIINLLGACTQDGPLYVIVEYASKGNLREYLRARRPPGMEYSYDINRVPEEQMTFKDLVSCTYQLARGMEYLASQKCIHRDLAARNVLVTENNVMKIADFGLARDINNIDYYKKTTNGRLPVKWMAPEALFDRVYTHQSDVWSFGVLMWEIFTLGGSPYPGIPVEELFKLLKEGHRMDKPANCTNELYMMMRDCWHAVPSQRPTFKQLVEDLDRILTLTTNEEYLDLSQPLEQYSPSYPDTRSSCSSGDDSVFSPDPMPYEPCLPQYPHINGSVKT

Row | Compound | Kd [1] [M] | Kd [2] [M] | Kd [3] [M] | Kd [4] [M] | melting point [°C] | Kd [5] [M] | FGFR4_pKd [5]
1 | COc1cc(OC)cc(N(Cc2ncc[nH]2)c2ccc3ncn(C4CCOCC4)c(=O)c3c2)c1 [Compound 69] | 1.58e-07 | 5.01e-08 | 1.58e-07 | > 3.16e-06 | 260 |  | 
2 | COc1cc(OC)c(F)c(N(CCO)c2ccc3ncn(C4CCOCC4)c(=O)c3c2)c1 [Compound 63] | 3.98e-07 | 6.31e-08 | 1.26e-07 | > 3.16e-06 | 191 | 1.58e-06 | 
3 | COc1cc(OC)cc(N(CCCNC(C)C)c2ccc3ncn(C4CCNCC4)c(=O)c3c2)c1 |  |  |  |  | 255 |  | 
4 | COc1cc(OC)c(F)c(N(CCCO)c2ccc3ncn(C4CCNCC4)c(=O)c3c2)c1 [Compound 54] | 7.94e-07 | 3.16e-07 | 6.31e-07 | > 3.16e-06 | 167 | > 3.16e-06 | 
5 | COc1cc(OC)c(F)c(N(Cc2nccn2S(=O)(=O)N(C)C)c2ccc3ncn(-c4ccncc4)c(=O)c3c2)c1F [Compound 40] | 3.98e-08 | 3.16e-08 | 6.31e-08 | 1.58e-06 | 139 | 2.51e-07 | 
6 | CNCCN(c1cc(OC)cc(OC)c1)c1ccc2ncn(C3CCOCC3)c(=O)c2c1 [Compound 71] | 6.31e-07 | 3.98e-07 | 1.26e-06 | > 3.16e-06 | 135 | > 3.16e-06 | 
7 | COc1cc(OC)c(F)c(N(CCO)c2ccc3ncn(C4CCNCC4)c(=O)c3c2)c1F [Compound 46] | 1e-07 | 3.98e-08 | 1e-07 | > 3.16e-06 | 186 | 7.94e-07 | 
8 | COc1cc(OC)c(F)c(N(CCCO)c2ccc3ncn(C4CCOCC4)c(=O)c3c2)c1 [Compound 65] | 2e-07 | 5.01e-08 | 7.94e-08 | > 3.16e-06 | 164 |  | 
9 | COc1cc(OC)cc(N(CCCNC(C)C)c2ccc3ncn(C4CCOCC4)c(=O)c3c2)c1 [Compound 73] | 6.31e-08 | 5.01e-08 | 1.58e-07 | > 3.16e-06 | 240 |  | 5.9
10 | COc1cc(OC)c(F)c(N(CCO)c2ccc3ncn(C4CCNCC4)c(=O)c3c2)c1 [Compound 48] | 1.26e-06 | 6.31e-07 | 7.94e-07 | > 3.16e-06 | 173 | > 3.16e-06 | 
11 | COc1cc(OC)cc(N(Cc2ncc[nH]2)c2ccc3ncn(C4CCNCC4)c(=O)c3c2)c1 [Compound 44] | 3.98e-07 | 1.58e-07 | 3.98e-07 | > 3.16e-06 | 220 | > 3.16e-06 | 
12 | COc1cc(OC)cc(N(CCO)c2ccc3ncn(-c4cccnc4)c(=O)c3c2)c1 [Compound 31] |  | 5.01e-07 |  | > 3.16e-06 | 168 | > 3.16e-06 | 
13 | COc1cc(OC)cc(N(CCCO)c2ccc3ncn(C4CCNCC4)c(=O)c3c2)c1 [Compound 55] | > 3.16e-06 | 2.51e-06 | 2.51e-06 | > 3.16e-06 | 167 | > 3.16e-06 | 
14 | COc1cc(OC)cc(N(CCCO)c2ccc3ncn(C4CCOCC4)c(=O)c3c2)c1 [Compound 66] | 1.26e-06 | 5.01e-07 | 1.26e-06 | > 3.16e-06 |  | > 3.16e-06 | 
15 | COc1cc(OC)c(F)c(N(CCCNC(C)C)c2ccc3ncn(C4CCOCC4)c(=O)c3c2)c1 [Compound 72] | 7.94e-09 | 1e-08 | 1.58e-08 | 2.51e-06 |  | 5.01e-08 | 
16 | COc1cc(OC)c(F)c(N(Cc2nccn2S(=O)(=O)N(C)C)c2ccc3ncn(C4CCOCC4)c(=O)c3c2)c1 [Compound 67] | 3.16e-07 | 2.51e-07 | 7.94e-07 | > 3.16e-06 | 189 | > 3.16e-06 | 
17 | COc1cc(OC)c(F)c(N(CCCNC(C)C)c2ccc3ncn(C4CCNCC4)c(=O)c3c2)c1F [Compound 60] | 6.31e-09 | 5.01e-09 | 1.26e-08 |  | 126 | 3.98e-08 | 
18 | COc1cc(OC)c(F)c(N(Cc2nccn2S(=O)(=O)N(C)C)c2ccc3ncn(-c4ccncc4)c(=O)c3c2)c1 [Compound 41] | 1e-07 | 3.16e-08 | 1.26e-07 | > 3.16e-06 |  | 7.94e-07 | 
19 | COc1cc(OC)cc(N(CCCNC(C)C)c2ccc3ncn(C4CCOCC4)c(=O)c3c2)c1 [Compound 73′] | 1.26e-07 | 6.31e-08 | 2e-07 |  |  | 1.26e-06 | 
20 | COc1cc(OC)c(F)c(N(CCO)c2ccc3ncn(-c4ccncc4)c(=O)c3c2)c1F [Compound 37] | 1.58e-08 | 2.51e-09 | 5.01e-09 |  | 198 | 5.01e-08 | 
